Experiments:
[1] = Particle size and polydispersity index (PDI) of nanolipid particles, dynamic light scattering; assay type: physicochemical; settings: LNP formulation prepared from the named cationic lipid, 25° C
Description: The particle size and polydispersity index (PDI) were determined by dynamic light scattering method using a Malvern laser particle size analyzer. 10 μL of liposome solution was diluted to 1 mL with RNase-free deionized water and added to a sample pool. Each sample was measured three times. The measurement conditions were: 90° scattering angle, 25° C.

293T cells [2] = assay: Fluorescence detection of Fluc-mRNA (cell transfection efficiency of LNP formulations); assay type: cell-based
Outline: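 293T cells at 10,000 per well, adhered overnight, then given LNPs carrying 0.3 μg Fluc-mRNA (cationic:neutral:structured:polymer-conjugated lipid 49:10:39.5:1.5 molar). After 24 h, luciferase signal read with luciferase kit reagents on an IVIS imaging system as transfection efficiency.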

293T cells [3] = assay: Cell survival rate assay (CCK-8); assay type: cell-based
Outline: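 293T cells seeded at 10,000 per well and grown overnight, then exposed for 24 h to LNPs (cationic/neutral/structured/PEG lipids 49:10:39.5:1.5) carrying 1.5 μg Fluc-mRNA, or Lipofectamine 3000. Viability read by CCK-8, 1 h incubation, absorbance at 450 nm.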

female BALB/C mice = assay: Mouse in vivo imaging of Fluc-mRNA LNP formulations; parameters: average radiation intensity (mRNA expression): unit not given here; settings: for average radiation intensity (mRNA expression): 10 μg Fluc-mRNA LNP intramuscularly
Outline: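 Female BALB/C mice (4–6 weeks, 17–19 g) received LNP carrying 10 μg Fluc-mRNA intramuscularly. Imaging substrate given intraperitoneally at 6 h, 24 h, 48 h and 7 d; after 5 min free movement, average radiance read by IVIS Spectrum imaging.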

[4] = Encapsulation rate, drug loading concentration and total RNA concentration detection (RiboGreen); assay type: physicochemical
[5] = LNP formulation of the named lipid

## CCCCCCCCCCOC(=O)CCCN(CCCCCC(=O)OCC(CCCCCCCC)CCCCCCCC)CCN(C)CCO [YK-207, 2-octyldecyl-6-(2-((2-(2-hydroxyethyl(methyl)amino)ethyl)(4-oxo-4-((decyloxy)butyl)amino) hexanoate]
[1]
  PDI: 18.9%
  Particle size: 192 nm
293T cells [2]; Fluc-mRNA LNP
  RLU / cell transfection efficiency, times that of ALC-0315: 9 times
  RLU / cell transfection efficiency, times that of HHMA: 10 times
  RLU / cell transfection efficiency, times that of Lipofectamine 3000: 17 times
  RLU / cell transfection efficiency, times that of YK-009: 4 times
  RLU / cell transfection efficiency, times that of compound 21: 14 times
  RLU / cell transfection efficiency, times that of compound 23: 15 times
  cell transfection efficiency, times that of YK-221: 960.71 times
  fluorescence absorption value / cell transfection efficiency, times that of YK-220: 124.13 times
293T cells [2]; LNP containing 0.3 μg Fluc-mRNA, 24 hours
  Relative light unit (RLU): 20878758 RLU
293T cells [2]; RLU of YK-201 / RLU of the named lipid
  Multiples of values that equivalent to YK-201: 1.36
293T cells [2]; RLU of YK-202 / RLU of the named lipid
  Multiples of values that equivalent to YK-202: 1.43
293T cells [2]; RLU of YK-209 / RLU of the named lipid
  Multiples of values that equivalent to YK-209: 1.29
293T cells [3]; LNP containing 1.5 μg Fluc-mRNA, 24 hours, CCK-8
  Cell survival rate: 73.88%
293T cells [3]; difference of rates
  cell survival rate higher than that of ALC-0315: 23.92%
  cell survival rate higher than that of HHMA: 8.32%
  cell survival rate higher than that of Lipofectamine 3000: 50.83%
  cell survival rate higher than that of SM-102: 5.33%
  cell survival rate higher than that of compound 21: 4.86%
  cell survival rate higher than that of compound 23: 3.78%
Female BALB/C mice; 6 h
  average radiation intensity (mRNA expression): 1974100
Female BALB/C mice; 24 h
  average radiation intensity (mRNA expression): 1523040
Female BALB/C mice; 48 h
  average radiation intensity (mRNA expression): 525800
Female BALB/C mice; 7 d
  average radiation intensity (mRNA expression): 22896
Female BALB/C mice; time point not stated
  mRNA expression level in mice can reach, times that of ALC-0315: 13 times
  mRNA expression level in mice can reach, times that of HHMA: 16 times
  mRNA expression level in mice can reach, times that of SM-102: 16 times
  mRNA expression level in mice can reach, times that of compound 21: 16 times
  mRNA expression level in mice can reach, times that of compound 23: 16 times
[4]
  drug loading concentration, times that of ALC-0315: 1.52 times
  drug loading concentration, times that of HHMA: 1.29 times
  drug loading concentration, times that of SM-102: 1.56 times
  drug loading concentration, times that of YK-009: 1.47 times
  drug loading concentration, times that of compound 21: 1.75 times
  drug loading concentration, times that of compound 23: 1.91 times
  total RNA concentration, times that of ALC-0315: 1.18 times
  total RNA concentration, times that of HHMA: 1.15 times
  total RNA concentration, times that of SM-102: 1.24 times
  total RNA concentration, times that of YK-009: 1.13 times
  total RNA concentration, times that of compound 21: 1.42 times
  total RNA concentration, times that of compound 23: 1.34 times
[4]; [5]
  Drug loading concentration: 39.60 µg/mL
  Encapsulation rate: 90.8%
  Total RNA concentration: 43.63 µg/mL
[4]; difference of rates
  encapsulation rate higher than that of ALC-0315: 28.00%
  encapsulation rate higher than that of HHMA: 30.30%
  encapsulation rate higher than that of SM-102: 28.50%
  encapsulation rate higher than that of YK-009: 27.80%
  encapsulation rate higher than that of compound 21: 33.00%
  encapsulation rate higher than that of compound 23: 35.60%

— US20260007601A1, “IONIZABLE CATIONIC LIPID COMPOUND AND COMPOSITION FOR DELIVERING NUCLEIC ACID AND USE THEREOF” (BEIJING YOUCAREKECHUANG PHARMACEUTICAL TECHNOLOGY CO., LTD., priority 2023, published 2026)
